According to paper PMC4770093, “The role of kinetic context in apparent biased agonism at GPCRs” (Nature Communications, 2016):

How the values were obtained:
[1] = tested on: D2R; assay: Simulation of receptor occupancy over time from kon and koff; conditions: simulation with a KD concentration of each agonist
Source text: We extended these studies with a Tag-lite receptor binding assay using a D2R construct with an amino-terminal SNAP tag and the fluorescently labelled agonist (±)-4′-amino-2-(N-phenethyl-N-propyl)-amino-5-hydroxytetralin (PPHT). […] The association rate of a ligand is often thought to be diffusion limited. […] Using these kinetic parameters, we performed a simulation to estimate the receptor occupancy of a KD concentration of each agonist over time (Fig. 4e).
Kinetic binding parameters of kon (a), koff (b) and t1/2 (c) were determined in a competition kinetic binding assay using a Tag-lite binding assay and the fluorescently labelled agonist PPHT as the tracer ligand (Supplementary Table 6). […] All values are expressed as mean±s.e.m. from three experiments. (e) The values of kon and koff obtained in the competition kinetic assay were used to simulate receptor occupancy over time using equation (9) and the concentration of ligand equivalent to its KD (see Supplementary Table 6).
where Ymax reflects maximum binding of a concentration of ligand and kob is determined by equation (8).

[2] = molecular target: SNAP-tagged human dopamine D2L (Homo sapiens, UniProt P14416); assay: Tag-lite PPHT-red competition kinetic binding (HTRF); conditions: SNAP-D2LR-CHO membranes; 100 μM Gpp(NH)p; 37 °C
Description: To terbium label the SNAP-CHO-D2L cells, cell culture medium was removed from the T175 cm^2 flasks containing confluent adherent SNAP-CHO-D2L cells. Twelve millilitres of Tag-lite labelling medium containing 100 nM of SNAP-Lumi4-Tb was added to the flask and incubated for 1 h at 37 °C under 5% CO2. Cells were then washed 2 × in 15 ml PBS (GIBCO, Invitrogen, Paisley, UK) to remove the excess of SNAP-Lumi4-Tb and detached using 5 ml of enzyme-free Hank's-based cell dissociation buffer (GIBCO, Invitrogen, Paisley, UK) and collected in a vial containing 5 ml of DMEM/Nutrient F-12 Ham, 2 mM glutamine supplemented 10% FCS. Cells were pelleted by centrifugation (5 min at 1,500 r.p.m.) and the pellets were frozen to −80 °C before preparation of membranes.
All subsequent steps described were conducted at 4 °C, to avoid receptor degradation. Twenty millilitres of wash buffer (10 mM HEPES and 10 mM EDTA pH 7.4) was added to the pellet of terbium-labelled cells (equivalent to 1 × t175 cm^2). […] The supernatant was discarded and the pellet was homogenized and centrifuged as described above in wash buffer. The final pellet was suspended in ice-cold 10 mM HEPES and 0.1 mM EDTA pH 7.4, at a concentration of 5–10 mg m^−1. Protein concentration was determined by the bicinchoninic acid assay using BSA as a standard and aliquots maintained at −80 °C until required. Before their use, the frozen membranes were thawed and the membranes suspended in the assay buffer at a membrane concentration of 0.1 mg m^−1.
GppNHp was included to remove the G protein-coupled population of receptors that can result in two binding sites in membrane preparations, because the Motulsky–Mahan model is only appropriate for ligands competing at a single site. […] Both fluorescent ligands and unlabelled compounds were diluted in the binding assay buffer.
Kinetics acquisitions at intervals of 20 s were recorded using the standard settings of the reader for HTRF measurements. […] Specific binding was determined by subtracting the nonspecific HTRF ratio from the total HTRF ratio.
To accurately determine association rate (kon) and dissociation rate (koff) values, the observed rate of association (kob) was calculated using at least four different concentrations of PPHT-red. The appropriate concentration of PPHT-red was incubated in a 384-well Optiplate with human SNAP-D2LR-CHO cell membranes (2 μg per well) in assay binding buffer at 37 °C (final assay volume, 40 μl). The degree of PPHT-red bound to the receptor was assessed at multiple time points by HTRF detection, to allow construction of association kinetic curves. The resulting data were globally fitted to the association kinetic model (equation (8)) to derive a single best-fit estimate for kon and koff as described under ‘Data analysis'.
On the same 384-well Optiplate plate, the kinetic parameters of unlabelled ligand were assessed using a competition kinetic binding assay. This approach involves the simultaneous addition of both fluorescent ligand and competitor to receptor preparation so that at t=0 all receptors are unoccupied. […] The degree of PPHT-red bound to the receptor was assessed at multiple time points by HTRF detection. Nonspecific binding was determined as the amount of HTRF signal detected in the presence of spiperone (1 μM) and was subtracted from each time point. Each time point was conducted on the same 384-well plate incubated at 37 °C with shaking (100 r.p.m.) after every cycle.
Data were globally fitted using equation (7), to simultaneously calculate kon and koff.

Chain of SNAP-tagged human dopamine D2L (P14416 whole entry): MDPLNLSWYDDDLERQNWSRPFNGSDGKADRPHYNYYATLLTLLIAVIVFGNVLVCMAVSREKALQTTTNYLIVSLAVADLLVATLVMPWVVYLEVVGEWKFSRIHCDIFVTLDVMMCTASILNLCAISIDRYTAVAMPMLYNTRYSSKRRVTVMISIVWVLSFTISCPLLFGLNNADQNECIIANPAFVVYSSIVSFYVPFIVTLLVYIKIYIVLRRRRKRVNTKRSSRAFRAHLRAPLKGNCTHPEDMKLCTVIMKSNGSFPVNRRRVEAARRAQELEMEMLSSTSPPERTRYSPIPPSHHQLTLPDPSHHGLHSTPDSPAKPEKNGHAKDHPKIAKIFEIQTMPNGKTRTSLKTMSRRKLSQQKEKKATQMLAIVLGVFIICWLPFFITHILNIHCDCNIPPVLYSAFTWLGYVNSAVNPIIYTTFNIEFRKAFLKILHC

SMILES: NCCc1ccc(O)c(O)c1 [Dopamine, dopamine]
- time to maximal receptor occupancy [1]: ≤ 1 min

SMILES: CCCN(CCc1ccc(N)cc1)C1CCc2c(O)cccc2C1 (racemic) [PPHT, (±)-4′-amino-2-(N-phenethyl-N-propyl)-amino-5-hydroxytetralin]
- rate of dissociation of the fluorescent tracer [2]: 0.45 min⁻¹

SMILES: CN(C)C(=O)N[C@H]1CC[C@H](CCN2CCN(c3cccc(Cl)c3Cl)CC2)CC1 [Cariprazine, cariprazine]
- time to maximal receptor occupancy [1]: ~10 min
